US10988786B2, “Mutant 4-hydroxyphenylacetate 3-hydroxylases and uses thereof” (SYMRISE AG, priority 2015, dated 2021)

Key:
[1] = molecular target: two component non-P450 hydroxylase HpaBC (Escherichia coli, UniProt Q57160); conditions: native wild-type HpaBC; proceeds incomplete; cited from earlier work
[2] = molecular target: T1, 4HPA3H-Y301F/S462A (SEQ ID NO:175) (Escherichia coli, UniProt Q57160, S462A/Y301F); assay: Solid phase-based cascade (Talon column), hydroxylation of naringenin to eriodictyol; type: biochemical, E. coli
T1 construct: made in house; host or cells: E. coli BL21(DE3)
Method: Stock solutions of […] and eriodictyol (10 mM each) in methanol were produced (for the structure of the compounds, see FIG. 9). They were diluted using acetonitrile for obtaining the desired concentrations (70, 110, 140, 210 and 280 μM). 10 μl of each sample was injected in to a HPLC machine and calibration curves were produced for both substances (data not shown).
First the catalysis was performed using 9 mU oxidase 4HPA3H in a 10 ml reaction comprising 1 ml 1M Tris/HCl, pH 7.5; 25 μl of a 10 mM NADH solution, 20 μl of a 5 mM FAD solution and 1 ml formate solution using 9 mU 4HPA3H-Y301F/S462A (SEQ ID NO:175) and 0.57 mU PrnF-reductase (SEQ ID NO:176) and 640 mU FDH (SEQ ID NO:177). Subsequently the enzymes were mixes, 100 μl 1M Tris/HCl solution, pH 7.5, was added and ddH2O (deionized, reverse osmosis) was added ad 2 ml. The enzyme solution was at least 5 times passed through a 1 ml Talon column with a flow rate of 0.1 ml/min^−1 to let the proteins bind to the column in a homogenous way. The evaluation of the complete binding of the proteins to the column material was measured via Bradford assay. Then, the column was washed once with 50 mM Tris/HCl, pH 7.5 (=basis buffer), and connected to a peristaltic pump.
The constituents of each reaction mixture were transferred to a suitable sterile flask, which was then connected to a peristaltic pump. During reaction, the reaction mixture was slightly stirred with the help of a magnetic stirrer. Using a flow rate of 1 ml/min, the system was washed with the basis buffer for 2 min and a control sample was taken. Only then, the substrate was added, here 200 μM naringenin (from a 10 mM stock solution in methanol). The substrate was pumped over the Talon column having the enzymes bound thereto with a flow rate of 1 ml/min at maximum. During the time range from 0-1310 min, the sample extraction was performed in samples of 35 μl each. Said samples were mixed with an equal volume of acetonitrile and were immediately injected into a HPLC device (20 μl each). The evaluation was conducted with the help of a calibration curve done at the beginning of the experiment and thereby measuring and calculating the peak areas (see FIG. 10).
The same assay was performed using 35 mU hydroxylase/1 ml column volume and the concentration of the co-enzymes for regeneration of the cofactor was increased equivalently.

4HPA3H = molecular target: T2, 4HPA3H (Escherichia coli, UniProt Q57160); assay: Whole-cell hydroxylation, cells expressing wild-type 4HPA3H; type: cell-based, E. coli; conditions: BL21(DE3) cells expressing wild-type 4HPA3H
T2 construct: expressed in transfected cells; host or cells: E. coli BL21(DE3)
Method: Substrates (200 μM) as shown in FIG. 1 were added to suspensions of bacterial cells expressing 4HPA3H or its single (A) and double variants (B). After incubation for 16 hours, catechols and residual substrates were extracted and analyzed by HPLC
Suspensions of the cells were tested for hydroxylation of a panel of eight phenolic compounds (FIG. 1) which belong to different classes of natural products: we included (I) phenolic acids and ketones such as p-coumaric acid (1), ferulic acid (3), rheosmin (15) and p-hydroxybenzoic acid (9), (II) polycyclic compounds such as the hydroxycoumarin umbelliferone (13), the stilbene resveratrol (5) and the flavonoid naringenin (7). […] 4HPA3H was also tested for conversion of 4-methoxycinnamic acid and 4-aminocinnamic acid.

wild-type 4HPA3H = molecular target: T3, wild-type 4HPA3H (Escherichia coli, UniProt Q57160); assay: In vitro hydroxylation by the 4HPA3H/PrnF/FDH system, wild-type 4HPA3H; type: biochemical, E. coli; conditions: substrate 1 mM, purified wild-type 4HPA3H, optimized conditions
T3 construct: made in house; host or cells: E. coli BL21(DE3)
Method: (§1) Purified 4HPA3H (A) or variants (B) (Y301I depicted in white and Y301F/S462A depicted in black) were used for conversion of substrates (1 mM) under optimized conditions. The numbers correspond to substrates as explained in the legend for FIG. 1 above.
(§2) In order to develop an effective and low-cost enzyme system for in vitro hydroxylation, several parameters of the 4HPA3H reaction with respect to maximum reaction rate were optimized. By means of a spectrophotometric assay (Example 4 above), the inventors screened different buffer systems and optimized the concentration of the components p-coumaric acid (1 cf. FIG. 1), FAD, NADH and methanol, the incubation temperature and oxygen transfer (i.e. by variation of the shaking frequency) (optimum conditions are given in the Experimental Section). […] In contrast to the cofactors, the accompanying cofactor recycling redox enzymes PrnF and FDH were used in excess due to their high specific activity.
In accordance with the whole-cell transformation experiments (FIG. 3), product yields in the conversion by the wild-type 4HPA3H (FIG. 8A) ranged from high (1, 13, 15 cf. FIG. 1) or moderate (5 cf. FIG. 1) to low (9, 11 cf. FIG. 1), whereas ferulic acid 3 was not oxidized. […] However, in contrast to the experiments with life biocatalysts […] conversion of naringenin (7 cf. FIG. 1) by the wild-type 4HPA3H (25% yield) was observed (which might be explained by increased substrate availability). The hydroxycarbazole (11) was not accepted by the double variant Y301F/S462A, probably because of the high substrate concentration which seems to reflect strong […] inhibition—an effect which has previously been observed for other 4HPA3H enzymes. Noteworthy, HPLC analysis of the reaction products confirmed product specificity.

[3] = molecular target: T4, 4HPA3H double variant Y301F/S462A (Escherichia coli, UniProt Q57160, S462A/Y301F); assay: In vitro hydroxylation by the 4HPA3H/PrnF/FDH system, variant Y301F/S462A; type: biochemical, E. coli; conditions: substrate 1 mM, purified Y301F/S462A
T4 construct: made in house; host or cells: E. coli BL21(DE3)
Method: as §1, §2
In accordance with the whole-cell transformation experiments (FIG. 3), product yields in the conversion by the wild-type 4HPA3H (FIG. 8A) ranged from high (1, 13, 15 cf. FIG. 1) or moderate (5 cf. FIG. 1) to low (9, 11 cf. FIG. 1), whereas ferulic acid 3 was not oxidized. […]

4HPA3H/PrnF/FDH system = assay: Dependence of in vitro conversion of p-coumaric acid on FAD concentration; type: biochemical
Method: The reactions were to performed using the 4HPA3H/PrnF/FDH system.
as §2

[4] = Reduction of FAD with NADH by purified PrnF; type: biochemical; conditions: purified protein
From the text: In order to characterize 4HPA3H and its variants with respect to specific activity, the development of a convenient in vitro assay was necessary. As the enzymes rely on a reductase component which provides the cofactor FADH2 (see FIG. 2), the inventors focused on screening of a suitable reductase enzyme in the first step. The flavin reductase HpaC from E. coli—the endogenous partner of 4HPA3H—was not accessible due to formation of mainly insoluble protein under a variety of expression conditions (data not shown).

What does the source list for `O=C1C[C@@H](c2ccc(O)cc2)Oc2cc(O)cc(O)c21` [Compound 7, naringenin]?
conversion of naringenin to eriodictyol [1]: < 10%; remaining concentration of naringenin ([2]; 9 mU enzyme/1 ml column, 200 μM naringenin, after 1290 min): 29.3 µM; remaining concentration of naringenin ([2]; 35 mU hydroxylase/1 ml column volume, after 240 min): 33.3 µM; acceptance as substrate (4HPA3H): not accepted

For `Oc1ccc2c(c1)[nH]c1ccccc12` [Compound 11, 2-hydroxycarbazole], which “product yield” value (wild-type 4HPA3H) is on record?
Its value is “low”.

What about the “acceptance as substrate” value [3] of the same molecule?
The value was “not accepted”.

With `Cc1cc2nc3c(=O)[nH]c(=O)nc-3n(C[C@H](O)[C@H](O)[C@H](O)COP(=O)(O)OP(=O)(O)OC[C@H]3O[C@@H](n4cnc5c(N)ncnc54)[C@H](O)[C@@H]3O)c2cc1C` [FAD, flavin adenine dinucleotide] as the molecule, how does the “effect of high concentrations on the redox system” value (4HPA3H/PrnF/FDH system) read?
Its value is “inhibitory”.

B1: PrnF: flavin reductase from Pseudomonas protegens Pf-5, cofactor recycling enzyme, SEQ ID NO:176 (protein, listed as Pseudomonas protegens)
chain: MNAATETKVHDLLDAEGRDVRDARELRNVLGQFATGVTVITTRTADGRNVGVTANSFSSLSLSPALVLWSLARTAPSLKAFCSASHFAINVLGAHQHHLSEQFARAAADKFAGVAHSYGKAGAPVLDDVVAVLVCRNVTQYEGGDHLIFIGEIEQYRYSGAEPLVFHAGQYRGLGSNRAESVLKHE
modifications: flavin reductase PrnF
Which “activity in reduction of FAD with NADH” value [4] does the source give for B1 here?
The value was 16,660±1,600 nmol min^−1 mg^−1.
